# Test results taken from patent US7973080B2 (Ambria Dermatology AB, priority 2003, dated 2011).
# Legend:
# Assay in all cases: MIC by standard blood agar dilution technique
# [1] = test system: methicillin-resistant Staphylococcus aureus; conditions: MR fuc +, met +
# From the text: (§1) The following bacteria were investigated: methicillin-resistant Staphylococcus aureus (MSRA), fucidic acid-resistant S. aureus, non-resistant S. pyogenes, coagulation-negative staphylococci (for resistance, see Table 1 below) vancomycin-resistant enterococci (Enterococcus CCUG van A and van B), non-resistant Escherichia coli, Acinetobacter resistant against cefadroxil, nitrofurantin, mecillinam, Serratia maltophilia resistant against most types of antibiotics, Enterobacter (for resistance, see Table 1 below; additionally resistant against cefadroxil and nitrofurantin), non-resistant α-streptococci, non-resistant Streptococcus Group G, Pseudomonas aeruginosa (for resistance, see Table 2 below). Inocula of 10^3 and 10^5 bacteria were used.
# Streptococcus group G = conditions: inoculate size 10^3
# From the text: as §1
# Acinetobacter = conditions: inoculate size 10^3
# From the text: as §1
# Enterobacter = conditions: MR tri −
# From the text: as §1
# S. aureus = test system: S. aureus
# From the text: as §1
# Streptococcus group C = conditions: inoculate size 10^3
# From the text: as §1
smiles,measurement,setting,value
"OCCCCCO [pentane-1,5-diol]","MIC (% by weight of pentane-1,5-diol)","[1]; MRSA CCUG 45008, inoculate size 10^3",12.5 % by weight
same,"MIC (% by weight of pentane-1,5-diol)","[1]; MRSA CCUG 45008, inoculate size 10^5",15.0 % by weight
same,"MIC (% by weight of pentane-1,5-diol)","[1]; MRSA CCUG 46463, inoculate size 10^3",10.0 % by weight
same,"MIC (% by weight of pentane-1,5-diol)","[1]; MRSA CCUG 46463, inoculate size 10^5",15.0 % by weight
same,"MIC (% by weight of pentane-1,5-diol)","[1]; MRSA CCUG 46618, inoculate size 10^3",12.5 % by weight
same,"MIC (% by weight of pentane-1,5-diol)","[1]; MRSA CCUG 46618, inoculate size 10^5",15.0 % by weight
same,"MIC (% by weight of pentane-1,5-diol)","[1]; MRSA CCUG 46740, inoculate size 10^3",12.5 % by weight
same,"MIC (% by weight of pentane-1,5-diol)","[1]; MRSA CCUG 46740, inoculate size 10^5",17.5 % by weight
same,"MIC (% by weight of pentane-1,5-diol)","[1]; MRSA CCUG 46870, inoculate size 10^3",10.0 % by weight
same,"MIC (% by weight of pentane-1,5-diol)","[1]; MRSA CCUG 46870, inoculate size 10^5",17.5 % by weight
same,"MIC (% by weight of pentane-1,5-diol)","[1]; MRSA CCUG 47019, inoculate size 10^3",10.0 % by weight
same,"MIC (% by weight of pentane-1,5-diol)","[1]; MRSA CCUG 47019, inoculate size 10^5",17.5 % by weight
same,"MIC (% by weight of pentane-1,5-diol)","[1]; MRSA Cypem, inoculate size 10^3",7.5 % by weight
same,"MIC (% by weight of pentane-1,5-diol)","[1]; MRSA Cypem, inoculate size 10^5",10.0 % by weight
same,"MIC (% by weight of pentane-1,5-diol)","[1]; MRSA PB/SS, inoculate size 10^3",12.5 % by weight
same,"MIC (% by weight of pentane-1,5-diol)","[1]; MRSA PB/SS, inoculate size 10^5",15.0 % by weight
same,"MIC (% by weight of pentane-1,5-diol)",Streptococcus group G; Strepotocccus group G 912 × 1106,7.5 % by weight
same,"MIC (% by weight of pentane-1,5-diol)",Streptococcus group G; Streptococcus group G 900 × 1714,10.0 % by weight
same,"MIC (% by weight of pentane-1,5-diol)",Streptococcus group G; Streptococcus group G 915 × 1095,7.5 % by weight
same,"MIC (% by weight of pentane-1,5-diol)",Streptococcus group G; Streptococcus group G 915 × 1146,7.5 % by weight
same,"MIC (% by weight of pentane-1,5-diol)",Streptococcus group G; Streptococcus group G 916 × 10985,7.5 % by weight
same,"MIC (% by weight of pentane-1,5-diol)",Acinetobacter; Acinetobacter 116 × 305,5.0 % by weight
same,"MIC (% by weight of pentane-1,5-diol)",Acinetobacter; Acinetobacter 117 × 217,5.0 % by weight
same,"MIC (% by weight of pentane-1,5-diol)",Acinetobacter; Acinetobacter 514 × 1224,5.0 % by weight
same,"MIC (% by weight of pentane-1,5-diol)",Acinetobacter; Acinetobacter 516 × 748,2.5 % by weight
same,"MIC (% by weight of pentane-1,5-diol)",Acinetobacter; Acinetobacter 921 × 16968,5.0 % by weight
same,"MIC (% by weight of pentane-1,5-diol)",Acinetobacter; Acinetobacter 921 × 113359,2.5 % by weight
same,"MIC (% by weight of pentane-1,5-diol)","Enterobacter; Enterobacter 921 × 57097, inoculate size 10^3",5.0 % by weight
same,"MIC (% by weight of pentane-1,5-diol)","Enterobacter; Enterobacter 921 × 57097, inoculate size 10^5",10.0 % by weight
same,"MIC (% by weight of pentane-1,5-diol)","Enterobacter; Enterobacter 921 × 57100, inoculate size 10^3",5.0 % by weight
same,"MIC (% by weight of pentane-1,5-diol)","Enterobacter; Enterobacter 921 × 57100, inoculate size 10^5",10.0 % by weight
same,"MIC (% by weight of pentane-1,5-diol)","Enterobacter; Enterobacter 921 × 57119, inoculate size 10^3",5.0 % by weight
same,"MIC (% by weight of pentane-1,5-diol)","Enterobacter; Enterobacter 921 × 57119, inoculate size 10^5",10.0 % by weight
same,"MIC (% by weight of pentane-1,5-diol)","Enterobacter; Enterobacter 921 × 57416, inoculate size 10^3",5.0 % by weight
same,"MIC (% by weight of pentane-1,5-diol)","Enterobacter; Enterobacter 921 × 57416, inoculate size 10^5",10.0 % by weight
same,"MIC (% by weight of pentane-1,5-diol)","Enterobacter; Enterobacter 921 × 57514, inoculate size 10^3",5.0 % by weight
same,"MIC (% by weight of pentane-1,5-diol)","Enterobacter; Enterobacter 921 × 57514, inoculate size 10^5",10.0 % by weight
same,"MIC (% by weight of pentane-1,5-diol)","Enterobacter; Enterobacter 921 × 57574, inoculate size 10^3",5.0 % by weight
same,"MIC (% by weight of pentane-1,5-diol)","Enterobacter; Enterobacter 921 × 57574, inoculate size 10^5",10.0 % by weight
same,"MIC (% by weight of pentane-1,5-diol)","S. aureus; S. aureus 916 × 8137, inoculate size 10^3, MR fuc −",12.5 % by weight
same,"MIC (% by weight of pentane-1,5-diol)","S. aureus; S. aureus 916 × 8137, inoculate size 10^5, MR fuc −",10.0 % by weight
same,"MIC (% by weight of pentane-1,5-diol)","S. aureus; S. aureus 916 × 8143, inoculate size 10^3, MR fuc −",12.5 % by weight
same,"MIC (% by weight of pentane-1,5-diol)","S. aureus; S. aureus 916 × 8143, inoculate size 10^5, MR fuc −",12.5 % by weight
same,"MIC (% by weight of pentane-1,5-diol)","S. aureus; S. aureus 916 × 8150, inoculate size 10^3, MR fuc −",12.5 % by weight
same,"MIC (% by weight of pentane-1,5-diol)","S. aureus; S. aureus 916 × 8150, inoculate size 10^5, MR fuc −",15.0 % by weight
same,"MIC (% by weight of pentane-1,5-diol)","S. aureus; S. aureus 916 × 8155, inoculate size 10^3, MR fuc −",10.0 % by weight
same,"MIC (% by weight of pentane-1,5-diol)","S. aureus; S. aureus 916 × 8155, inoculate size 10^5, MR fuc −",12.5 % by weight
same,"MIC (% by weight of pentane-1,5-diol)","S. aureus; S. aureus 916 × 8158, inoculate size 10^3, MR fuc −",12.5 % by weight
same,"MIC (% by weight of pentane-1,5-diol)","S. aureus; S. aureus 916 × 8158, inoculate size 10^5, MR fuc −",15.0 % by weight
same,"MIC (% by weight of pentane-1,5-diol)","S. aureus; S. aureus 916 × 8163, inoculate size 10^3, MR fuc +",12.5 % by weight
same,"MIC (% by weight of pentane-1,5-diol)","S. aureus; S. aureus 916 × 8163, inoculate size 10^5, MR fuc +",17.5 % by weight
same,"MIC (% by weight of pentane-1,5-diol)","S. aureus; S. aureus 916 × 8180, inoculate size 10^3, MR fuc −",12.5 % by weight
same,"MIC (% by weight of pentane-1,5-diol)","S. aureus; S. aureus 916 × 8180, inoculate size 10^5, MR fuc −",15.0 % by weight
same,"MIC (% by weight of pentane-1,5-diol)","S. aureus; S. aureus 916 × 8181, inoculate size 10^3, MR fuc −",12.5 % by weight
same,"MIC (% by weight of pentane-1,5-diol)","S. aureus; S. aureus 916 × 8181, inoculate size 10^5, MR fuc −",15.0 % by weight
same,"MIC (% by weight of pentane-1,5-diol)","S. aureus; S. aureus 916 × 8183, inoculate size 10^3, MR fuc −",12.5 % by weight
same,"MIC (% by weight of pentane-1,5-diol)","S. aureus; S. aureus 916 × 8183, inoculate size 10^5, MR fuc −",17.5 % by weight
same,"MIC (% by weight of pentane-1,5-diol)","S. aureus; S. aureus 916 × 8184, inoculate size 10^3, MR fuc +",10.0 % by weight
same,"MIC (% by weight of pentane-1,5-diol)","S. aureus; S. aureus 916 × 8184, inoculate size 10^5, MR fuc +",12.5 % by weight
same,"MIC (% by weight of pentane-1,5-diol)","S. aureus; S. aureus 916 × 8191, inoculate size 10^3, MR fuc −",12.5 % by weight
same,"MIC (% by weight of pentane-1,5-diol)","S. aureus; S. aureus 916 × 8191, inoculate size 10^5, MR fuc −",15.0 % by weight
same,"MIC (% by weight of pentane-1,5-diol)",Streptococcus group C; Streptococcus group C 900 × 1618,7.5 % by weight
same,"MIC (% by weight of pentane-1,5-diol)",Streptococcus group C; Streptococcus group C 912 × 1114,10.0 % by weight
same,"MIC (% by weight of pentane-1,5-diol)",Streptococcus group C; Streptococcus group C 912 × 1185,10.0 % by weight
